Measured values published in patent publication US20100004193A1, “COMBINATION THERAPY” (FONDAZIONE PER LA RICERCA BIOMEDICA AVANZATA ONLUS - …, priority 2008, published 2010).

Columns and labels:
[1] = system: T-24, HT-1376 and HT-1197 cell lines and clones; assay: Metabolic labelling of protein synthesis with 35S-methionine/cysteine; format: cell-based
Procedure: Cells were labelled for 1.5 hours in growth medium without methionine and cysteine supplemented with 30 μCi/ml [^35S]-methionine/cysteine. Subsequently, the proteins were precipitated with TCA as described previously (Zhang et al., 2004). The incorporated radioactivity was expressed as counts/μg protein.
FIG. 3. Protein synthesis in the presence of Gem is higher in the resistant clones. […] Medium was removed and replaced for 1.5 h by medium containing 30 μCi/ml ^35S-methionine/cysteine (pulse). […] The reduction in radioactively labelled proteins due to protein degradation during the chase was significant as indicated. (B) The three parental cell lines and HT-1197 and T-24 stably expressing Bcl-2 were incubated with Gem as in (A) in the presence of 40 μM (T-24, HT-1376) or 80 μM z-VAD-fmk (HT-1197) or vehicle (DMSO). Subsequently, the cells were labelled as before. (C) Two sensitive and two resistant clones of each clone set were incubated and labelled as in (A). […] Results are from two independent experiments in duplicate. Error bars depict S.E.M. **P<0.01.
FIG. 5. Protein synthesis inhibitors diminish Gem resistance. (A) Two sensitive and two resistant clones of each clone set were incubated with Gem (T-24: 30 nM, 2 days; HT-1376: 80 nM, 4 days; HT-1197: 120 nM, 5 days). […] Cell death was measured by propidium iodide dye exclusion using flow cytometry. (B) The parental cell lines were incubated with Gem (T-24: 30 nM Gem, 1 day; HT-1376: 80 nM, 3 days; HT-1197: 120 nM, 3 days) in the absence or presence of the indicated protein synthesis inhibitors (250 μg/ml G418 for T-24, 80 μg/ml for HT-1376, 70 μg/ml for HT-1197; 500 ng/ml CHX for all cell lines; 10 nM rapamycin for all cell lines). Subsequently, cells were labeled with 30 μCi/ml ^35S-methionine/cysteine. (C) The parental cell lines were incubated with Gem like for the selection of the Gem-resistant clones and additionally G418 was added at 250 μg/ml (T-24), 80 μg/ml G418 (HT-1376) or 70 μg/ml G418 (HT-1197). Afterward, the remaining cells on the culture plate were stained with crystal violet. A representative assay is shown. All other data are from two independent experiments in duplicate. Error bars represent S.E.M. **P-<0.01, ***p<0.001.

[2] = system: eIF2α, eukaryotic initiation factor 4E binding protein 1, ribosomal protein S6; assay: Phosphorylation state of translation regulators upon Gem treatment; format: cell-based
Procedure: Quantitative real-time PCR and immunoblotting—We used the same RNA that was isolated for the DNA microarrays and prepared cDNA using Applied Biosystem (ABI) Reverse Transcription Reagents with random hexamer primers. Real-time PCR was performed using the PCR Master Mix (ABI) and ready-made TaqMan expression assays on an ABI Prism 7000. […] For this clone set, we used another “house-keeping gene”, HPRT1, for normalizing the expression values. Expression levels were calculated according to the formula: 1000*2^([…]). Cell lysis for protein extraction was performed on the same day as metabolic labelling. Immunoblotting was done as described previously (Abraham et al., 2005).

[3] = system: T-24 and HT-1197; assay: Form of Gem-induced cell death, Bcl-2 overexpression; format: cell-based; conditions: inhibited by Bcl-2 overexpression
Procedure: (§1) Cell culture, cell death assays and growth assays—The T-24 and HT-1376 cell lines were purchased from the German Collection of Microorganisms and Cell Cultures and were cultivated in DMEM, high glucose, containing 10% Fetal Bovine Serum (FBS) or Minimum Essential Medium with 10% FBS and non-essential amino acids, respectively. HT-1197 was a gift from Bioxell (Milano) and was cultured like HT-1376. […] HT-1376 and its clones were incubated for 4 days and HT-1197 for 5 days with Gem including one medium change after 2 days. The percentage of dead cells that took up propidium iodide was determined using flow cytometry. […] Staining with Annexin-V-FITC was performed according to the manufacturer's description (Roche). To assess the cell number by staining with 3-(4,5-Dimethylthiazol-2-yl)-2,5-diphenyltetrazolium bromide (MTT), MTT was added at 500 μg/ml. After 2 hours, precipitate was solubilized by addition of 0.04N HCl/Isopropanol. Absorbance was read at 570 nm with reference at 650 nm.
In HT-1376, apoptosis could not be inhibited by Bcl-2. However, this might be attributed to the relatively low overexpression of Bcl-2 (Supplementary FIG. 1).

[4] = system: T-24, HT-1197, HT-1376, MCF-7, A-549 and AsPC-1 cancer cell lines; assay: EC50 for Gem-induced cell death or growth inhibition with G418 at fixed concentrations; format: cell-based; conditions: G418 at fixed concentrations with no or little effect on their own; Gem 2 to 5 days
Procedure: as §1, with “To assess the cell number by staining with 3-(4,5-Dimethylthiazol-2-yl)-2,5-diphenyltetrazolium bromide (MTT), MTT was added at 500 μg/ml. After 2 hours, precipitate was solubilized by addition of 0.04N HCl/Isopropanol.” left out
G418 enhances Gem-induced cell death or growth inhibition in various cancer cell lines—Since enhancing Gem action would benefit therapy, we tested whether supplementing Gem with G418 could augment the effect of Gem also in other cancer cell lines. To this end, we added G418 at fixed concentrations and determined the EC50 value for Gem-induced cell death. […]
FIG. 6. […] Cell death was measured by propidium iodide dye exclusion except for MCF-7 and AsPC-1 where cell number was measured by MTT-assay. […]

[5] = concentrations comparable to the concentrations used by the applicant; cited from earlier work
[6] = system: clones of T-24, HT-1376 and HT-1197 bladder cancer cell lines; assay: Cell death by propidium iodide dye exclusion (flow cytometry) in Gem-sensitive and Gem-resistant clones; format: cell-based; conditions: 2 sensitive and 2 resistant clones per clone set; Gem 30 nM 2 days (T-24), 80 nM 4 days (HT-1376), 120 nM 5 days (HT-1197); G418 250 or 70 μg/ml, cycloheximide 500 ng/ml, rapamycin 10 nM
Procedure: as §1
Generation of Gemcitabine-resistant clones and stable cell lines—The T-24 cell line was incubated with 120 nM Gem for 3 days, HT-1376 with 160 nM Gem and HT-1197 with 1.6 μM for 7 days. […] Subsequently, the medium was changed for normal growth medium without Gem and the cells were grown for additional 1 to 3 weeks. […]
FIG. 5. […] Cell death was measured by propidium iodide dye exclusion using flow cytometry. […]

With `Nc1ccn([C@@H]2O[C@H](CO)[C@@H](O)C2(F)F)c(=O)n1` [Gem, 2′-2′-difluorodeoxycytidine] the “Protein synthesis upon Gem treatment of the parental cell lines” value ([1]; T-24 30 nM 1 day, HT-1376 80 nM 3 days, HT-1197 120 nM 3 days) was “protein synthesis was reduced”, the “Protein synthesis upon Gem treatment, resistant versus sensitive clones” value ([1]; two resistant and two sensitive clones of each clone set) was “decreased protein synthesis significantly less in the resistant clones compared to the sensitive clones” and the “Phosphorylation state upon Gem treatment” value [2] was “neither eIF2α nor eukaryotic initiation factor 4E binding protein 1 nor ribosomal protein S6 changed phosphorylation state”. For the same molecule, the “Form of cell death induced by Gem” value [3] was “induced an apoptotic form of cell death”.

With z-VAD-fmk the “Protein synthesis rates with Gem in the presence of the caspase inhibitor” value ([1]; 40 μM (T-24, HT-1376) or 80 μM (HT-1197) z-VAD-fmk) was “did not alter the protein synthesis rates with Gem”.

For `CN[C@@H]1[C@@H](O)[C@@H](O[C@@H]2[C@@H](O)[C@H](O[C@H]3O[C@H]([C@@H](C)O)[C@@H](O)[C@H](O)[C@H]3N)[C@@H](N)C[C@H]2N)OC[C@]1(C)O` [G418], the “Decrease of the EC50 value for Gem-induced cell death by addition of G418” value [4] is given as “up to 30 fold” and the “Effects of G418 treatment on mice” value [5] is given as “without detectable effects on mice”.

For `C[C@@H]1C[C@@H]([C@H](O)CC2CC(=O)NC(=O)C2)C(=O)[C@@H](C)C1` [cycloheximide], the “Gem-induced cell death on concomitant treatment with a protein synthesis inhibitor” value [6] was “inhibited Gem-induced cell death” and the “Protein synthesis in the presence of Gem plus a protein synthesis inhibitor” value ([1]; parental cell lines, Gem 30 nM 1 day (T-24), 80 nM 3 days (HT-1376), 120 nM 3 days (HT-1197), G418 250/80/70 μg/ml, CHX 500 ng/ml, rapamycin 10 nM) was “increased protein synthesis compared to Gem alone”.
